Source: patent US5672715A, “Herbicidal substituted 3-aryl-pyrazoles” (Monsanto Company, priority 1995, dated 1997)
Where two headings read alike, the source gives them in different places.

Assays:
Type in all cases: in vivo
Soybean [1] = experiment: pre-emergence herbicide test; conditions: Glycine max, pre-emergence, read-out: % plant inhibition
Outline: (§1)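 Sown seeds covered with dosed topsoil; carrier acetone or water; greenhouse, watered from below, optional 1/4 in overhead irrigation post-treatment; % inhibition at ~14 d.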

Yellow Nutsedge = experiment: pre-emergence herbicide test; conditions: Cyperus, read-out: % plant inhibition
Outline: as §1

Morning Glory = experiment: pre-emergence herbicide test; conditions: Ipomoea, pre-emergence, read-out: % plant inhibition
Outline: as §1

Cocklebur [2] = experiment: pre-emergence herbicide test; conditions: Xanthium strumarium, pre-emergence, read-out: % plant inhibition
Outline: as §1

Velvetleaf = experiment: pre-emergence herbicide test; conditions: Abutilon theophrasti, pre-emergence, read-out: % plant inhibition
Outline: as §1

Corn = experiment: pre-emergence herbicide test; conditions: Zea mays, pre-emergence, read-out: % plant inhibition
Outline: as §1

Barnyardgrass [3] = experiment: pre-emergence herbicide test; conditions: Echinochloa crus-galli, pre-emergence, read-out: % plant inhibition
Outline: as §1

Rice = experiment: pre-emergence herbicide test; conditions: Oryza sativa, read-out: % plant inhibition
Outline: as §1

Yellow Foxtail = experiment: pre-emergence herbicide test; conditions: Setaria, read-out: % plant inhibition
Outline: as §1

Soybean [4] = experiment: post-emergence herbicide test; conditions: Glycine max, post-emergence, read-out: % plant inhibition
Outline: (§2)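 Each pan is moved to a spraying chamber when plants are two to three weeks old and sprayed by atomizer at 10 psig, delivering 1870 L/Ha containing about 0.4% by volume emulsifier. Greenhouse-grown from seed; percent inhibition scored.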

Bedstraw Catchweed = experiment: post-emergence herbicide test; conditions: Galium aparine, post-emergence, read-out: % plant inhibition
Outline: as §2

Wheat = experiment: post-emergence herbicide test; conditions: Triticum aestivum, post-emergence, read-out: % plant inhibition
Outline: as §2

Blackgrass = experiment: post-emergence herbicide test; conditions: Alopecurus myosuroides, post-emergence, read-out: % plant inhibition; for inhibition at 7.95803 g/ha: 0.0071 lb/A; for inhibition at 40.0143 g/ha: 0.0357 lb/A; for inhibition at 200.072 g/ha: 0.1785 lb/A; for inhibition at 1000.92 g/ha: 0.893 lb/A
Outline: as §2

Cocklebur [5] = experiment: post-emergence herbicide test; conditions: Xanthium strumarium, post-emergence, read-out: % plant inhibition
Outline: as §2

Barnyardgrass [6] = experiment: post-emergence herbicide test; conditions: Echinochloa crus-galli, post-emergence, read-out: % plant inhibition
Outline: as §2

C#CCOc1cc(-c2nn(C)c(C(F)(F)F)c2C)c(F)cc1Cl [Compound 39]
50%: inhibition at 7.95803 g/ha (Cocklebur [2]; 0.0071 lb/A)
98%: inhibition at 40.0143 g/ha (Cocklebur [5]; 0.0357 lb/A) | inhibition at 200.072 g/ha (Barnyardgrass [6]; 0.1785 lb/A) | inhibition at 1000.92 g/ha (Barnyardgrass [6]; 0.893 lb/A)
85%: inhibition at 40.0143 g/ha (Morning Glory; 0.0357 lb/A) | inhibition at 200.072 g/ha (Rice; 0.1785 lb/A)
65%: inhibition at 1000.92 g/ha (Yellow Nutsedge; 0.893 lb/A) | inhibition at 7.95803 g/ha (Rice; 0.0071 lb/A)
10%: inhibition at 7.95803 g/ha (Corn; 0.0071 lb/A) | inhibition at 7.95803 g/ha (Blackgrass; Table 4a)
0%: inhibition at 7.95803 g/ha (Soybean [1]; 0.0071 lb/A) | inhibition at 7.95803 g/ha (Bedstraw Catchweed; 0.0071 lb/A) | inhibition at 7.95803 g/ha (Wheat; 0.0071 lb/A) | inhibition at 40.0143 g/ha (Wheat; 0.0357 lb/A) | inhibition at 7.95803 g/ha (Blackgrass; Table 5a)
25%: inhibition at 40.0143 g/ha (Yellow Nutsedge; 0.0357 lb/A) | inhibition at 7.95803 g/ha (Soybean [4]; 0.0071 lb/A) | inhibition at 200.072 g/ha (Blackgrass; Table 4a)
75%: inhibition at 1000.92 g/ha (Wheat; 0.893 lb/A)
30%: inhibition at 7.95803 g/ha (Barnyardgrass [6]; 0.0071 lb/A)
100%: inhibition at 40.0143 g/ha (Soybean [1]; 0.0357 lb/A) | inhibition at 1000.92 g/ha (Soybean [1]; 0.893 lb/A) | inhibition at 200.072 g/ha (Morning Glory; 0.1785 lb/A) | inhibition at 1000.92 g/ha (Morning Glory; 0.893 lb/A) | inhibition at 1000.92 g/ha (Cocklebur [2]; 0.893 lb/A) | inhibition at 7.95803 g/ha (Velvetleaf; 0.0071 lb/A) | inhibition at 40.0143 g/ha (Velvetleaf; 0.0357 lb/A) | inhibition at 200.072 g/ha (Velvetleaf; 0.1785 lb/A) | inhibition at 1000.92 g/ha (Velvetleaf; 0.893 lb/A) | inhibition at 280.212 g/ha (Corn; 0.25 lb/A) | inhibition at 1000.92 g/ha (Corn; 0.893 lb/A) | inhibition at 40.0143 g/ha (Barnyardgrass [3]; 0.0357 lb/A) | inhibition at 200.072 g/ha (Barnyardgrass [3]; 0.1785 lb/A) | inhibition at 280.212 g/ha (Barnyardgrass [3]; 0.25 lb/A) | inhibition at 1000.92 g/ha (Barnyardgrass [3]; 0.893 lb/A) | inhibition at 1000.92 g/ha (Rice; 0.893 lb/A) | inhibition at 40.0143 g/ha (Yellow Foxtail; 0.0357 lb/A) | inhibition at 200.072 g/ha (Yellow Foxtail; 0.1785 lb/A) | inhibition at 280.212 g/ha (Yellow Foxtail; 0.25 lb/A) | inhibition at 1000.92 g/ha (Yellow Foxtail; 0.893 lb/A) | inhibition at 1000.92 g/ha (Soybean [4]; 0.893 lb/A) | inhibition at 40.0143 g/ha (Bedstraw Catchweed; 0.0357 lb/A) | inhibition at 200.072 g/ha (Bedstraw Catchweed; 0.1785 lb/A) | inhibition at 1000.92 g/ha (Bedstraw Catchweed; 0.893 lb/A) | inhibition at 1000.92 g/ha (Blackgrass; Table 5a) | inhibition at 1000.92 g/ha (Cocklebur [5]; 0.893 lb/A)
55%: inhibition at 200.072 g/ha (Yellow Nutsedge; 0.1785 lb/A)
80%: inhibition at 40.0143 g/ha (Cocklebur [2]; 0.0357 lb/A) | inhibition at 40.0143 g/ha (Corn; 0.0357 lb/A) | inhibition at 7.95803 g/ha (Barnyardgrass [3]; 0.0071 lb/A) | inhibition at 40.0143 g/ha (Blackgrass; Table 5a) | inhibition at 7.95803 g/ha (Cocklebur [5]; 0.0071 lb/A) | inhibition at 200.072 g/ha (Cocklebur [5]; 0.1785 lb/A)
95%: inhibition at 200.072 g/ha (Soybean [1]; 0.1785 lb/A) | inhibition at 280.212 g/ha (Soybean [1]; 0.25 lb/A) | inhibition at 200.072 g/ha (Cocklebur [2]; 0.1785 lb/A) | inhibition at 200.072 g/ha (Corn; 0.1785 lb/A) | inhibition at 7.95803 g/ha (Yellow Foxtail; 0.0071 lb/A) | inhibition at 200.072 g/ha (Blackgrass; Table 5a)
35%: inhibition at 40.0143 g/ha (Blackgrass; Table 4a)
70%: inhibition at 7.95803 g/ha (Yellow Nutsedge; 0.0071 lb/A) | inhibition at 7.95803 g/ha (Morning Glory; 0.0071 lb/A) | inhibition at 40.0143 g/ha (Rice; 0.0357 lb/A) | inhibition at 40.0143 g/ha (Soybean [4]; 0.0357 lb/A) | inhibition at 200.072 g/ha (Soybean [4]; 0.1785 lb/A) | inhibition at 1000.92 g/ha (Blackgrass; Table 4a) | inhibition at 40.0143 g/ha (Barnyardgrass [6]; 0.0357 lb/A)
15%: inhibition at 200.072 g/ha (Wheat; 0.1785 lb/A)
